The values below come from ChEMBL document CHEMBL1134617 (J Med Chem, 2001).

pKi: −log10 of the molar value. A value given as a limit tells only on which side of the number the result lay.

Test [1] has as its target T1, 5-hydroxytryptamine receptor 2C (Rattus norvegicus, UniProt P08909).
T1 sequence (P08909 whole entry): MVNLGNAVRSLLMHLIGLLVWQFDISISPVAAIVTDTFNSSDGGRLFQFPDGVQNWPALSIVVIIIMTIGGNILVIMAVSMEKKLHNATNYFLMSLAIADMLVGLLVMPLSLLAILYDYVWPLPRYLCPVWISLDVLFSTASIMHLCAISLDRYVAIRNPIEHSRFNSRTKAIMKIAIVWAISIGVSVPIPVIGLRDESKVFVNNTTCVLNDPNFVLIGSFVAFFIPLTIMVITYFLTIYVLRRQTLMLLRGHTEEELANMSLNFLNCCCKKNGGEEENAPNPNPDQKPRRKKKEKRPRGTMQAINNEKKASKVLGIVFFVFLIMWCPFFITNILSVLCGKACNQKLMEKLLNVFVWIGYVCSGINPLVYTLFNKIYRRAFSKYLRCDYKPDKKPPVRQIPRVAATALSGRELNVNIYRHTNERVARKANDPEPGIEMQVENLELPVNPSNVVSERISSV
The experiment in a line: Binding affinity against rat 5-hydroxytryptamine 2C receptor using [3H]mesulergine as radioligand.

Test [2] deals with T2, 5-hydroxytryptamine receptor 2A (Rattus norvegicus, UniProt P14842). Kind of test: Binding affinity against rat 5-hydroxytryptamine 2A receptor using [3H]DOB as radioligand.
Test [3] has as its target T2, 5-hydroxytryptamine receptor 2A. The experiment in a line: Binding affinity against rat 5-hydroxytryptamine 2A receptor using [3H]ketanserin as radioligand.
In test [4] the target is Serotonin receptor 2a and 2c (5HT2A and 5HT2C) (Rattus norvegicus) (UniProt P08909+P14842). Kind of test: Ratio of binding affinity towards rat 5-HT2C and 5-HT2A receptors. The format is protein assay.
Sequence of Serotonin receptor 2a and 2c (5HT2A and 5HT2C) (Rattus norvegicus) (P14842 whole entry, looked up, one chain of several): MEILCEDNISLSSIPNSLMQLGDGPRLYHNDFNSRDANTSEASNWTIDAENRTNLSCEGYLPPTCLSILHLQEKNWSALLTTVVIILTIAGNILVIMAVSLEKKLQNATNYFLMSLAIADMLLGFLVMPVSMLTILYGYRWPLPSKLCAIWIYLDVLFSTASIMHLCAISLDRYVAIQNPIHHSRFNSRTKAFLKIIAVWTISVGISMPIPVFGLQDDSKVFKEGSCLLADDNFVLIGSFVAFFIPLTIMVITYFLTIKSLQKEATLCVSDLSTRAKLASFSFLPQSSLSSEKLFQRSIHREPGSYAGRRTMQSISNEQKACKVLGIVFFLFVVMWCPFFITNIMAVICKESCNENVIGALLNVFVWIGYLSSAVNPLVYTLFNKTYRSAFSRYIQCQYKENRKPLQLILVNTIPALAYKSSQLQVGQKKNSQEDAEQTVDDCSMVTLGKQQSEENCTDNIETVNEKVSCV

T2 sequence (P14842 whole entry): as the sequence (P14842 whole entry, looked up, one chain of several) above

Regarding `COc1cc(CCCc2ccccc2)ccc1CCN`, the pKi in test [1] is 6.53; in test [2], 7.92; in test [3] it was 7.74. Besides, the Ratio in test [4] was 16.

For `COc1ccc(OCc2ccccc2)cc1CCN`, the pKi is 6.39 in test [1], 6.59 in test [2] and 6.46 in test [3]. For the same compound, in test [4], the Ratio is 1.

As to `COc1ccccc1CCN`, the pKi in test [1], in test [2] and in test [3] was < 5.00 each time.

For `COc1ccc(Cc2ccccc2)cc1CCN`, the pKi was 6.64 in test [1] and 6.75 in test [3]. For the same compound, the Ratio in test [4] was determined as 1.

For the compound `COc1ccc(OCCc2ccccc2)cc1CCN`, the pKi in test [1] was 5.75; in test [2] it was 6.36; in test [3], 6.22. Also, the Ratio in test [4] worked out at 3.

Regarding `COc1cc(CCCc2ccccc2)ccc1CC(C)N` (configuration not stated), the Ratio in test [4] amounted to 11.

Take `COc1cc(CCCCc2ccccc2)ccc1CCN`: the pKi was 7.17 in test [1], 7.38 in test [2] and 7.23 in test [3]. The Ratio in test [4] was 1.

As for `COc1ccc(CCCc2ccccc2)cc1CC(C)N` (configuration not stated), the pKi in test [1] was 6.96; in test [2] it was 7.72; in test [3], 7.89. Also, the Ratio in test [4] was found to be 8.

With `COc1cc(Cc2ccccc2)ccc1CCN`, the pKi in test [1] was 7.03; in test [3], 7.64. For the same compound, the Ratio in test [4] came to 4.

Consider `COc1cc(OCCc2ccccc2)ccc1CCN`, for which the pKi is 6.09 in test [1], 6.96 in test [2] and 6.76 in test [3]. In addition, the Ratio in test [4] was 5.

Regarding `COc1ccc(I)cc1CCN`, the pKi in test [1] was 5.79; in test [2], 6.68; in test [3], 6.15. The Ratio in test [4] worked out at 2.

Consider `COc1cc(CCCCCc2ccccc2)ccc1CCN`, for which the pKi was 7.72 in test [1], 7.74 in test [2] and 7.14 in test [3]. Also, in test [4], the Ratio was < 1.

Consider `COc1ccc(CCc2ccccc2)cc1CCN`, for which the pKi in test [1] is 6.36; in test [3], 6.62. Besides, the Ratio in test [4] was found to be 2.

Turning to `COc1cc(-c2ccccc2)ccc1CCN`, the values for the pKi in test [1], in test [2] and in test [3] were 5.82, 5.31 and 5.17, respectively. The Ratio in test [4] was < 1.

Regarding `COc1ccc(O)cc1CCN`, the pKi in test [1] is 5.31; in test [2] it was 5.88; in test [3] it was 5.22. Also, in test [4], the Ratio came to 1.

On to `COc1ccc(C#CCCCc2ccccc2)cc1CCN`, for which the results for the pKi in test [1] and in test [3] were 6.69 and 6.53, respectively. In test [4], the Ratio was < 1.

In the case of `COc1ccc(OCCc2ccc(Br)cc2)cc1CCN`, the results for the pKi in test [1], in test [2] and in test [3] were 6.94, 7.46 and 7.04, respectively. For the same compound, the Ratio in test [4] came out at 1.

As to `COc1cc(CCc2ccccc2)ccc1CCN`, the pKi in test [1] is 6.77; in test [3], 7.34. In test [4], the Ratio is 4.

For `COc1cc(C#CCCCc2ccccc2)ccc1CCN`, the figures for the pKi in test [1], in test [2] and in test [3] were 7.15, 6.62 and 6.53, respectively. For the same compound, the Ratio in test [4] was < 1.

As to `COc1cc(CCCC2CCCCC2)ccc1CCN`, the pKi in test [1] was 6.94; in test [2], 6.60; in test [3] it was 6.36. Moreover, the Ratio in test [4] is < 1.

As to `COc1ccc(CCCCc2ccccc2)cc1CCN`, the pKi is 7.15 in test [1], 7.17 in test [2] and 7.05 in test [3]. The Ratio in test [4] was 1.

`COc1ccc(-c2ccccc2)cc1CCN`: the pKi in test [1] is 5.54; in test [2], 5.82; in test [3] it was 5.46. In addition, the Ratio in test [4] amounted to 1.

Consider `COc1ccc(Br)cc1CCN`, for which the pKi in test [1] is 6.02; in test [2] it was 6.68; in test [3] it was 6.00. For the same compound, in test [4], the Ratio is 1.

Consider `COc1ccc(CCCCCc2ccccc2)cc1CCN`, for which the pKi in test [1] is 6.82; in test [3], 6.96. In addition, the Ratio in test [4] came out at 1.

For the compound `COc1ccc(OC)c(CCN)c1`, the negative-log Ki (pKi) in test [1] is 5.19; in test [3] it was 5.55. The Ratio in test [4] was 2.

Take `COc1ccc(CCCC2CCCCC2)cc1CCN`: the pKi in test [1] is 6.70; in test [2], 6.12; in test [3] it was 6.42. For the same compound, the Ratio in test [4] was < 1.

For the compound `COc1ccc(CCCc2ccccc2)cc1CCN`, the pKi is 6.66 in test [1], 7.52 in test [2] and 7.70 in test [3]. The Ratio in test [4] turned out to be 11.

The pKi is the negative decadic logarithm of the Ki, by convention in mol/L. Low readings indicate a large Ki, high ones a small Ki.
